Assay results taken from patent US11884647B2, “Compounds and methods for targeting pathogenic blood vessels” (THE REGENTS OF THE UNIVERSITY OF CALIFORNIA, priority 2019, dated 2024).

Test system: tumor endothelial cells (LL/2 lung cancer tumor)
Assay: Lung LL2 ex vivo model of tumor angiogenesis
Format: cell-based, mouse
Conditions: for Cell death: drug treatment two days; for cytotoxicity at 40 µM / cytotoxicity at 20 µM: Mus musculus, Endothelial cell, 48 h, read-out: Cell death
Description: This example describes a procedure to prepare a primary tumor angiogenesis model for assessing the efficacy of anti-cancer candidate agents.
1. The day before the experiment, spray all necessary tools with 70% ethanol and sterilize them under UV light overnight, including blade, dissecting and micro-dissecting scissors and […]. Place 24-well dishes at 4° C. to pre-chill plates and thaw Matrigel 24 hours before tumor dissection.
2. Spray 70% ethanol on working bench. Prepare two sterile petri dishes with 10 mL sterile PBS. Steps 3 and 4 are for mouse tumor models. For fresh human tumor, directly go to step 5.
3. Euthanize the tumor-bearing mice. Spray 70% ethanol on the mouse and remove the tumor using sterilized dissecting tools (avoid the fur). Rinse the tumor in petri dish with sterile PBS to remove ethanol and fur. Transfer the tumor to a new petri dish with PBS for dissection. Place the dish on ice.
4. Using pre-chilled sterile pipet tips to seed regular Matrigel in 24 well plates on ice. Matrigel (30 μL) is dropped in the middle of each well without touching the edge of the well (avoid introducing bubbles if possible).
5. Cut the tumor in halves using the sterile blade. Identify and isolate healthy tumor tissue that is not necrotic and is within the tumor capsule. Cut the healthy tumor tissue into small pieces. For instance, a suitable size for the tumor tissue is 0.5 mm (H)×0.5 mm (L)×0.3 mm (D) with a total volume of 0.075 mm^3.
6. Gently transfer and embed each tumor piece in the Matrigel drop in the 24-well plate. Place the embedded piece in the bottom and middle of each Matrigel drop. Keep the plate on ice all the time.
7. After seeding the tumor pieces, plates are incubated in a 37° C. cell culture incubator without medium for 10 minutes in order for the Matrigel to solidify.
8. Endothelial Growth Medium (0.5 mL) is added to each well and incubated at 37° C. with 5% CO2. Wait until the new endothelial cells have grown out of the tumor or are larger than 3 mm in diameter until treatment. This usually takes 4 days for the LL2 Lewis lung cancer model and 7 days for the CT26 colon cancer model. For human tumor models, the growth time is typically 2-3 weeks, depending on the tumor type. Media is changed every 4 days during prolonged culture. Typically, when the tumor tissue grows to 2 mm in diameter, it is good for drug testing. A size of about 3 mm in diameter can make visualization easier.
9. When the assay is ready to be analyzed for cell death (e.g., 48 hours after drug addition), prepare the dye mixture by mixing 6 μL of green dye to stain live cells (5 mg/mL Fluorescein diacetate or FDA in DMSO) with 30 μL of red dye (2.5 mg/mL Propidium iodide or PI in PBS) to stain dead cells in an Eppendorf tube. The FDA dye needs to be stored frozen in a −20° C. freezer because it has a labile ester bond.
10. Add 1 μL of the dye mixture to each well of the 24-well dish. It is usually performed one 24-well dish at a time given the amount of time needed to take pictures (the green dye is not as stable in the cells in the long term).
11. Gently rock the dish a few times to mix the dye with the media in the wells and incubate the dish at 37° C. for 10 min (too long incubation can make the green signal too intense).
12. Wash each well with 0.5 mL of sterile PBS and then add 0.5 mL of phenol red free SFM to each well. Alternatively 0.5 mL of regular Endothelial Cell Growth Media can be added to each well if this well needs to be continuously maintained after the experiment.
13. Look through all wells on an inverted microscope using the 2× objective lens to observe morphological changes.
14. Taking pictures in the red and green channels would allow not only the recording of the result but also more accurate quantitation of the result. To take pictures for all the wells, first pick a well that has robust red and green signals. […]

Compound | cytotoxicity at 40 µM [%] | also measured
CCCCOc1ccc(S(=O)(=O)c2cnc3ccc(C(=O)OCC)cc3c2N2CCN(c3ccc(F)cc3)CC2)cc1 [compound 213, ethyl 3-((4-butoxyphenyl)sulfonyl)-4-(4-(4-fluorophenyl)piperazin-1-yl)quinoline-6-carboxylate] |  | Cell death (Lung LL2 ex vivo, Conc. 40 μm): 30%
CCCCOc1ccc(S(=O)(=O)c2cnc3ccc(C(=O)OCC)cc3c2N2CCC(N3CCSCC3)CC2)cc1 [compound 217, ethyl 3-((4-butoxyphenyl)sulfonyl)-4-(4-thiomorpholinopiperidin-1-yl)quinoline-6-carboxylate] | 30 | 
CCCCCCCOc1ccc(S(=O)(=O)c2cnc3ccc(SC)cc3c2N2CCC(N3CCC(O)CC3)CC2)cc1 [compound 223, 1′-(3-((4-(heptyloxy)phenyl)sulfonyl)-6-(methylthio)quinolin-4-yl)-[1,4′-bipiperidin]-4-ol] |  | Cell death (rim) (Lung LL2 ex vivo, Conc. 40 μm, (rim)): 30%
CCOC(=O)c1ccc2ncc(S(=O)(=O)c3ccc(OC)cc3)c(NN3CCN(C)CC3)c2c1 [compound 225, ethyl 3-((4-methoxyphenyl)sulfonyl)-4-((4-methylpiperazin-1-yl)amino)quinoline-6-carboxylate] | 40 | 
COc1ccc(S(=O)(=O)c2cnc3ccc(SC)cc3c2NN2CCN(C)CC2)cc1 [compound 226, 3-((4-methoxyphenyl)sulfonyl)-N-(4-methylpiperazin-1-yl)-6-(methylthio)quinolin-4-amine] | 10 | 
COc1ccc(S(=O)(=O)c2cnc3ccc([S+](C)[O-])cc3c2NN2CCN(C)CC2)cc1 (stereo not shown) [compound 227, 3-((4-methoxyphenyl)sulfonyl)-N-(4-methylpiperazin-1-yl)-6-(methylsulfinyl)quinolin-4-amine] | 10 | 
COc1ccc(S(=O)(=O)c2cnc3ccc(S(C)(=O)=O)cc3c2NN2CCN(C)CC2)cc1 [compound 228, 3-((4-methoxyphenyl)sulfonyl)-N-(4-methylpiperazin-1-yl)-6-(methylsulfonyl)quinolin-4-amine] | 5 | 
CCCCOc1ccc(S(=O)(=O)c2cnc3ccc(SC)cc3c2N2CCC(N3CCOCC3)CC2)cc1 [compound 229, 4-(1-(3-((4-butoxyphenyl)sulfonyl)-6-(methylthio)quinolin-4-yl)piperidin-4-yl)morpholine] | 30 | 
CCCCOc1ccc(S(=O)(=O)c2cnc3ccc(SC)cc3c2N2CCC(N3CCN(CCO)CC3)CC2)cc1 [compound 230, 2-(4-(1-(3-((4-butoxyphenyl)sulfonyl)-6-(methylthio)quinolin-4-yl)piperidin-4-yl)piperazin-1-yl)ethan-1-ol] |  | Cell death (Lung LL2 ex vivo, Conc. 40 μm): 100%
CCCCOc1ccc(S(=O)(=O)c2cnc3ccc(SC)cc3c2N2CCC(N3CCC(N4CCCCC4)CC3)CC2)cc1 [compound 231, 4-([1,4′:1′,4″-terpiperidin]-1″-yl)-3-((4-butoxyphenyl)sulfonyl)-6-(methylthio)quinoline] | 100 | 
CCCCOc1ccc(S(=O)(=O)c2cnc3ccc(SC)cc3c2N2CCC(N3CCC(O)(c4ccccc4)CC3)CC2)cc1 [compound 232, 1′-(3-((4-butoxyphenyl)sulfonyl)-6-(methylthio)quinolin-4-yl)-4-phenyl-[1,4′-bipiperidin]-4-ol] | 10 | 
CCCCOc1ccc(S(=O)(=O)c2cnc3ccc(SC)cc3c2N2CCC(N3CCN(c4ccc(F)cc4)CC3)CC2)cc1 [compound 233, 3-((4-butoxyphenyl)sulfonyl)-4-(4-(4-(4-fluorophenyl)piperazin-1-yl)piperidin-1-yl)-6-(methylthio)quinoline] | 5 | 
CCCCOc1ccc(S(=O)(=O)c2cnc3ccc(SC)cc3c2N2CCC(N3CCCN(C)CC3)CC2)cc1 [compound 234, 3-((4-butoxyphenyl)sulfonyl)-4-(4-(4-methyl-1,4-diazepan-1-yl)piperidin-1-yl)-6-(methylthio)quinoline] | 100 | 
CCCCOc1ccc(S(=O)(=O)c2cnc3ccc([S+](C)[O-])cc3c2N2CCC(N3CCOCC3)CC2)cc1 (stereo not shown) [compound 235, 4-(1-(3-((4-butoxyphenyl)sulfonyl)-6-(methylsulfinyl)quinolin-4-yl)piperidin-4-yl)morpholine] | 10 | 
CCCCOc1ccc(S(=O)(=O)c2cnc3ccc([S+](C)[O-])cc3c2N2CCC(N3CCN(CCO)CC3)CC2)cc1 (stereo not shown) [compound 236, 2-(4-(1-(3-((4-butoxyphenyl)sulfonyl)-6-(methylsulfinyl)quinolin-4-yl)piperidin-4-yl)piperazin-1-yl)ethan-1-ol] | 5 | 
CCCCOc1ccc(S(=O)(=O)c2cnc3ccc([S+](C)[O-])cc3c2N2CCC(N3CCC(N4CCCCC4)CC3)CC2)cc1 (stereo not shown) [compound 237, 4-([1,4′:1′,4″-terpiperidin]-1″-yl)-3-((4-butoxyphenyl)sulfonyl)-6-(methylsulfinyl)quinoline] | 100 | 
CCCCOc1ccc(S(=O)(=O)c2cnc3ccc([S+](C)[O-])cc3c2N2CCC(N3CCN(c4ccc(F)cc4)CC3)CC2)cc1 (stereo not shown) [compound 239, 3-((4-butoxyphenyl)sulfonyl)-4-(4-(4-(4-fluorophenyl)piperazin-1-yl)piperidin-1-yl)-6-(methylsulfinyl)quinoline] | 40 | 
CCCCOc1ccc(S(=O)(=O)c2cnc3ccc([S+](C)[O-])cc3c2N2CCC(N3CCC(CO)CC3)CC2)cc1 (stereo not shown) [compound 240, (1′-(3-((4-butoxyphenyl)sulfonyl)-6-(methylsulfinyl)quinolin-4-yl)-[1,4′-bipiperidin]-4-yl)methanol] | 30 | 
CCN(CC)CCOc1ccc(S(=O)(=O)c2cnc3ccc(SC)cc3c2N2CCCN(C)CC2)cc1 [compound 242, N,N-diethyl-2-(4-((4-(4-methyl-1,4-diazepan-1-yl)-6-(methylthio)quinolin-3-yl)sulfonyl)phenoxy)ethan-1-amine] | 30 | 
CCCCOc1ccc(S(=O)(=O)c2cnc3ccc(SC)cc3c2N2CCC(N3CCSCC3)CC2)cc1 [compound 243, 4-(1-(3-((4-butoxyphenyl)sulfonyl)-6-(methylthio)quinolin-4-yl)piperidin-4-yl)thiomorpholine] | 20 | 
CCCCOc1ccc(S(=O)(=O)c2cnc3ccc([S+](C)[O-])cc3c2N2CCC(N3CCSCC3)CC2)cc1 (stereo not shown) [compound 245, 4-(1-(3-((4-butoxyphenyl)sulfonyl)-6-(methylsulfinyl)quinolin-4-yl)piperidin-4-yl)thiomorpholine] | 40 | 
CCCCCCCOc1ccc(S(=O)(=O)c2cnc3ccc(SC)cc3c2N2CCC(N3CCN(C)CC3)CC2)cc1 [compound 246, 3-((4-(heptyloxy)phenyl)sulfonyl)-4-(4-(4-methylpiperazin-1-yl)piperidin-1-yl)-6-(methylthio)quinoline] |  | cytotoxicity at 20 µM: 95%
CCCCCCCOc1ccc(S(=O)(=O)c2cnc3ccc(SC)cc3c2N2CCC(N3CCCC(O)C3)CC2)cc1 (stereo not shown) [compound 247, 1′-(3-((4-(heptyloxy)phenyl)sulfonyl)-6-(methylthio)quinolin-4-yl)-[1,4′-bipiperidin]-3-ol] |  | cytotoxicity at 20 µM: 60%
CCCCCCCOc1ccc(S(=O)(=O)c2cnc3ccc(SC)cc3c2N2CCCN(CCN3CCCCC3)CC2)cc1 [compound 248, 3-((4-(heptyloxy)phenyl)sulfonyl)-6-(methylthio)-4-(4-(2-(piperidin-1-yl)ethyl)-1,4-diazepan-1-yl)quinoline] |  | cytotoxicity at 20 µM: 60%
CCCCCCCOc1ccc(S(=O)(=O)c2cnc3ccc(SC)cc3c2N2CCC(N3CCCN(C)CC3)CC2)cc1 [compound 249, 3-((4-(heptyloxy)phenyl)sulfonyl)-4-(4-(4-methyl-1,4-diazepan-1-yl)piperidin-1-yl)-6-(methylthio)quinoline] |  | cytotoxicity at 20 µM: 60%
